Read-outs that look alike come from different tables or passages of the source.
Biological target: PI3Kα (Homo sapiens (Human), UniProt P42336)
Test: ADP-Glo Kinase Assay, PI3Kα enzyme activity inhibition
[1] = ADP-Glo, ATP 25 μM, PIP2 50 μg/mL, 1 hour at room temperature
[2] = PI3Kaα IC50, ADP-Glo, ATP 25 μM, PIP2 50 μg/mL, 1 hour at room temperature

Chain of PI3Kα (P42336 whole entry): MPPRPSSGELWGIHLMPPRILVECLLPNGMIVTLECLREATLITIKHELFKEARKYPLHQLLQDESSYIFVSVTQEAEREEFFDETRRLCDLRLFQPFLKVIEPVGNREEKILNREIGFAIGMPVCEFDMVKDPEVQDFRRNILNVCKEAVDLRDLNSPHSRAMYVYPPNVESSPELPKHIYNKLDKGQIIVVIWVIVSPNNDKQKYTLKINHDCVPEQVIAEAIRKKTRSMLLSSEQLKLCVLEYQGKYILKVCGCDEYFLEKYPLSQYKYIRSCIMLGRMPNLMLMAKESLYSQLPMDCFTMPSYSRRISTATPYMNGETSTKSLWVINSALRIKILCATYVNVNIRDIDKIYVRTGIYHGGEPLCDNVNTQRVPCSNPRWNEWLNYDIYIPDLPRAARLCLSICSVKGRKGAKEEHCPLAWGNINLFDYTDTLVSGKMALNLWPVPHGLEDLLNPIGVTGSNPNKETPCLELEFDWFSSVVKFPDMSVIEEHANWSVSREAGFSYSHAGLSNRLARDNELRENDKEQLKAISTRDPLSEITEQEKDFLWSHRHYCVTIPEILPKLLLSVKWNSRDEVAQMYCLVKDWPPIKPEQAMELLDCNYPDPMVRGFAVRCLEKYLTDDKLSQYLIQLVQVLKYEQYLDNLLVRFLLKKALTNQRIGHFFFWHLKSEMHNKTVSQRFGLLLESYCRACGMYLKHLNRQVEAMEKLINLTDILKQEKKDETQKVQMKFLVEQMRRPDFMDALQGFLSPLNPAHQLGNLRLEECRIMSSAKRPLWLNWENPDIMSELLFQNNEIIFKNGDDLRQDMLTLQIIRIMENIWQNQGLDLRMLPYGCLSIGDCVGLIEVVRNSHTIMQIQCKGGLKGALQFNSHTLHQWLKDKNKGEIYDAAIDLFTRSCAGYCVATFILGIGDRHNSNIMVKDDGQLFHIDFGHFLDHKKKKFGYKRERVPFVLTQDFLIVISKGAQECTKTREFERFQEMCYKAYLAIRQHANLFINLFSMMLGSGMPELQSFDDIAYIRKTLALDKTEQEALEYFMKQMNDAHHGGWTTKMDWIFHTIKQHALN
Chain of PI3Kα (P27986 whole entry partner): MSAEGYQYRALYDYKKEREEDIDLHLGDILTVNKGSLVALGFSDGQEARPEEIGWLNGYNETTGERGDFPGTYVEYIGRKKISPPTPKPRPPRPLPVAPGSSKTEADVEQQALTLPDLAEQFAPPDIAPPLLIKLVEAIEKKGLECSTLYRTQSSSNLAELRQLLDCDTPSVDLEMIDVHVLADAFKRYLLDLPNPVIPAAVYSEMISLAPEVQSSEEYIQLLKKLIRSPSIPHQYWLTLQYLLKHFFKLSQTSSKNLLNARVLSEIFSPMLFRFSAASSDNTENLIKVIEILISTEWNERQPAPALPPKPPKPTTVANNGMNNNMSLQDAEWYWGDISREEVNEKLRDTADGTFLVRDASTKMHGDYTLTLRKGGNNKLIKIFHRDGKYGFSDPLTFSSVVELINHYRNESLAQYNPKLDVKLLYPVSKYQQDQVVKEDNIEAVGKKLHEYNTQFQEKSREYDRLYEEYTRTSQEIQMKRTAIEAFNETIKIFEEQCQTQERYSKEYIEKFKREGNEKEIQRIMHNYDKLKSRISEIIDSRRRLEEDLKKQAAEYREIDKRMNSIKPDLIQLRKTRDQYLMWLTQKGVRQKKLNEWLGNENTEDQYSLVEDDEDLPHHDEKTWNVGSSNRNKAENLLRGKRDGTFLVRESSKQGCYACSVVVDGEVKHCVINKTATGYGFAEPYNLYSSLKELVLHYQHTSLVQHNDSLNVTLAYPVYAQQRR
Procedure: The ADP-Glo Kinase Assay Kit was used for the experiments. The following buffer solutions were prepared: 50 mM HEPES, pH 7.5, 3 mM MgCl2, 1 mM EGTA, 100 mM NaCl, 0.03% CHAPS, 2 mM DTT. The tested compound samples were dissolved in DMSO and added to the screening system at a certain starting concentration of, for example, 10 μM, diluted 3-fold, while setting a DMSO control and an unkinase control. […] The reaction system was reacted at room temperature for 1 hour, then terminated by adding a terminal reagent (ADP-Glo reagent, 5 μL), and the ADP content in the system was detected using a detection reagent (Kinase Detection Reagent, 10 μL). Signal data was collected using the Envision instrument. Calculated the % inhibition according to the following formula: % inhibition=(DMSO control signal value−sample signal value)! (DMSO control signal value −unkinase control signal value).

| SMILES | PI3Kaα IC50 [1] | further results |
| --- | --- | --- |
| [N-]=[N+]=Nc1cc(NC(=O)c2cc(F)cc(C(F)(F)F)c2)c2c3c1CCN3C(=O)NC2c1cc(F)ccc1Cl (stereo not shown) [YL011] | ++ (++ represents 250 nM<IC50<=10 μM) | – |
| O=C(Nc1cc(Br)c2c3c1C(c1ccccc1)NC(=O)N3CC2)c1cc(F)cc(C(F)(F)F)c1 (stereo not shown) [YL064] | +++ (+++ represents IC50>10 μM) | – |
| O=C(Nc1cc(N2CC(F)(F)C2)c2c3c1C(c1cc(F)ccc1Cl)NC(=O)N3CC2)c1cc(F)cc(C(F)(F)F)c1 (stereo not shown) [YL012] | ++ (++ represents 250 nM<IC50<=10 μM) | – |
| O=C(Nc1cc(-c2c[nH]cn2)c2c3c1C(c1cc(F)ccc1Cl)NC(=O)N3CC2)c1cc(F)cc(C(F)(F)F)c1 (stereo not shown) [YL074] | – | IC50 [2]: 0.25 to 10 µM |
| N#Cc1nc(N)ncc1-c1cc(NC(=O)c2cc(F)cc(C(F)(F)F)c2)c2c3c1CCN3C(=O)NC2c1cc(F)ccc1Cl (stereo not shown) [YL137] | +++ (+++ represents IC50>10 μM) | – |
| O=C(Nc1cc(O)c2c3c1C(c1cc(F)ccc1Cl)NC(=O)N3CC2)c1cc(F)cc(C(F)(F)F)c1 (stereo not shown) [YL076] | – | IC50 [2]: 0.25 to 10 µM |
| Nc1cc(NC(=O)c2cc(F)cc(C(F)(F)F)c2)c2c3c1CCN3C(=O)NC2c1cc(Cl)ccc1C(F)(F)F (stereo not shown) [YL095] | – | IC50 [2]: 0.25 to 10 µM |
| Nc1cc(-c2cc(NC(=O)c3cc(F)cc(C(F)(F)F)c3)c3c4c2CCN4C(=O)NC3c2cc(F)ccc2Cl)[nH]n1 (stereo not shown) [YL053] | ++ (++ represents 250 nM<IC50<=10 μM) | – |
| Nc1cc(-c2cc(Nc3nccc4c(C(F)(F)F)cc(F)cc34)c3c4c2CCN4C(=O)NC3c2cc(F)ccc2Cl)n[nH]1 (stereo not shown) [YL044] | ++ (++ represents 250 nM<IC50<=10 μM) | – |
| O=C1NC(c2cc(F)ccc2Cl)c2c(Nc3nccc4c(C(F)(F)F)cc(F)cc34)cc(Br)c3c2N1CC3 (stereo not shown) [YL042] | ++ (++ represents 250 nM<IC50<=10 μM) | – |
| Cc1ncc(-c2cc(NC(=O)c3cc(F)cc(C(F)(F)F)c3)c3c4c2CCN4C(=O)NC3c2cc(F)ccc2Cl)[nH]1 (stereo not shown) [YL067] | +++ (+++ represents IC50>10 μM) | – |
| C#Cc1cc(NC(=O)c2cc(F)cc(C(F)(F)F)c2)c2c3c1CCN3C(=O)NC2c1cc(F)ccc1Cl (stereo not shown) [YL069] | +++ (+++ represents IC50>10 μM) | – |
| Nc1cc(-c2nc3cc(Cl)ccc3[nH]2)c2c3c1CCN3C(=O)NC2c1cc(F)ccc1Cl (stereo not shown) [YL099] | – | IC50 [2]: 0.25 to 10 µM |
| N#Cc1c(-c2cc(NC(=O)c3cc(F)cc(C(F)(F)F)c3)c3c4c2CCN4C(=O)NC3c2cc(Cl)ccc2Cl)ccc2ncnn12 (single isomer, unassigned) [YL109-P2] | – | IC50 [2]: > 10 µM |
| N#Cc1ncccc1-c1cc(NC(=O)c2cc(F)cc(C(F)(F)F)c2)c2c3c1CCN3C(=O)NC2c1cc(F)ccc1Cl (stereo not shown) [YL136] | ++ (++ represents 250 nM<IC50<=10 μM) | – |
| O=C1NC(c2cc(F)ccc2Cl)c2c(Nc3nccc4c(C(F)(F)F)cc(F)cc34)ccc3c2N1CC3 (stereo not shown) [YL050] | ++ (++ represents 250 nM<IC50<=10 μM) | – |
| Cn1cc(-c2cc(NC(=O)c3cc(F)cc(C(F)(F)F)c3)c3c4c2CCN4C(=O)NC3c2cc(F)ccc2Cl)cn1 (stereo not shown) [YL015] | ++ (++ represents 250 nM<IC50<=10 μM) | – |
| N#Cc1c(-c2cc(NC(=O)c3cc(F)cc(C(F)(F)F)c3)c3c4c2CCN4C(=O)NC3c2cc(F)ccc2Cl)cc(F)c2ncnn12 (stereo not shown) [YL149] | – | IC50 [2]: > 10 µM |
| O=C(Nc1cc(-c2c(C(F)(F)F)n[nH]c2-c2ccccc2)c2c3c1C(c1cc(F)ccc1Cl)NC(=O)N3CC2)c1cc(F)cc(C(F)(F)F)c1 (stereo not shown) [YL049] | +++ (+++ represents IC50>10 μM) | – |
| O=C(Nc1cc(F)cc(C(F)(F)F)c1)Nc1cc(Br)c2c3c1C(c1cc(F)ccc1Cl)NC(=O)N3CC2 (stereo not shown) [YL122] | +++ (+++ represents IC50>10 μM) | – |
| O=C(Nc1cc(-c2ccc3ncnn3c2)c2c3c1C(c1cc(F)ccc1Cl)NC(=O)N3CC2)c1cc(F)cc(C(F)(F)F)c1 (stereo not shown) [YL128] | +++ (+++ represents IC50>10 μM) | – |
| C[C@H](O)C(=O)Nc1cc(NC(=O)c2cc(F)cc(C(F)(F)F)c2)c2c3c1CCN3C(=O)NC2c1cc(F)ccc1Cl (stereo partly shown) [YL030] | +++ (+++ represents IC50>10 μM) | – |
| N#Cc1n[nH]cc1-c1cc(NC(=O)c2cc(F)cc(C(F)(F)F)c2)c2c3c1CCN3C(=O)NC2c1cc(F)ccc1Cl (stereo not shown) [YL126] | +++ (+++ represents IC50>10 μM) | – |
| Cn1nc(C(F)(F)F)cc1-c1cc(NC(=O)c2cc(F)cc(C(F)(F)F)c2)c2c3c1CCN3C(=O)NC2c1cc(F)ccc1Cl (stereo not shown) [YL014] | ++ (++ represents 250 nM<IC50<=10 μM) | – |
| O=C(Nc1cc(F)c2c3c1C(c1cc(F)ccc1Cl)NC(=O)N3CC2)c1cc(F)cc(C(F)(F)F)c1 (stereo not shown) [YL021] | ++ (++ represents 250 nM<IC50<=10 μM) | – |
| Cc1cc(-c2cc(NC(=O)c3cc(F)cc(C(F)(F)F)c3)c3c4c2CCN4C(=O)NC3c2cc(F)ccc2Cl)n[nH]1 (stereo not shown) [YL070] | +++ (+++ represents IC50>10 μM) | – |

| SMILES | PI3Kaα IC50 [1] | further results |
| --- | --- | --- |
| O=C(Nc1cc(-c2cnc3[nH]cnc3c2Cl)c2c3c1C(c1cc(F)ccc1Cl)NC(=O)N3CC2)c1cc(F)cc(C(F)(F)F)c1 (stereo not shown) [YL147] | +++ (+++ represents IC50>10 μM) | – |
| O=C(Nc1cc(NC(=O)C(F)(F)F)c2c3c1C(c1cc(F)ccc1Cl)NC(=O)N3CC2)c1cc(F)cc(C(F)(F)F)c1 (stereo not shown) [YL009] | ++ (++ represents 250 nM<IC50<=10 μM) | – |
| O=C(Nc1cc(Br)c2c3c1C(c1ccccc1Cl)NC(=O)N3CC2)c1cc(F)cc(C(F)(F)F)c1 (stereo not shown) [YL066] | +++ (+++ represents IC50>10 μM) | – |
| O=C(Nc1cc(B(O)O)c2c3c1C(c1cc(F)ccc1Cl)NC(=O)N3CC2)c1cc(F)cc(C(F)(F)F)c1 (stereo not shown) [YL019] | ++ (++ represents 250 nM<IC50<=10 μM) | – |
| Cn1nc2c(C#N)cc(NC(=O)c3cc(F)cc(C(F)(F)F)c3)c3c2c1C(=O)NC3c1cc(Cl)ccc1Cl (single isomer, unassigned) [YL111-P2] | – | IC50 [2]: > 10 µM |
| O=C(Nc1cc(-c2cnoc2)c2c3c1C(c1cc(F)ccc1Cl)NC(=O)N3CC2)c1cc(F)cc(C(F)(F)F)c1 (stereo not shown) [YL018] | ++ (++ represents 250 nM<IC50<=10 μM) | – |
| O=C(Nc1cc(Br)c2c3c1C(c1cc(F)ccc1Cl)NC(=O)N3CC2)c1cc(F)cc(C(F)(F)F)c1 (single isomer, unassigned) [YL079-P1] | – | IC50 [2]: > 10 µM |
| N#Cc1ccc(-c2cc(NC(=O)c3cc(F)cc(C(F)(F)F)c3)c3c4c2CCN4C(=O)NC3c2cc(F)ccc2Cl)c(N)n1 (stereo not shown) [YL134] | +++ (+++ represents IC50>10 μM) | – |
| N#Cc1cc2ncnn2cc1-c1cc(NC(=O)c2cc(F)cc(C(F)(F)F)c2)c2c3c1CCN3C(=O)NC2c1cc(F)ccc1Cl (stereo not shown) [YL153] | +++ (+++ represents IC50>10 μM) | – |
| O=C(Nc1cc(-c2ccc3ncnn3c2Br)c2c3c1C(c1cc(F)ccc1Cl)NC(=O)N3CC2)c1cc(F)cc(C(F)(F)F)c1 (stereo not shown) [YL139] | +++ (+++ represents IC50>10 μM) | – |
| COc1c(-c2cc(NC(=O)c3cc(F)cc(C(F)(F)F)c3)c3c4c2CCN4C(=O)NC3c2cc(F)ccc2Cl)ccc2ncnn12 (stereo not shown) [YL146] | +++ (+++ represents IC50>10 μM) | – |
| N#Cc1cc(N)ccc1-c1cc(NC(=O)c2cc(F)cc(C(F)(F)F)c2)c2c3c1CCN3C(=O)NC2c1cc(F)ccc1Cl (stereo not shown) [YL150] | ++ (++ represents 250 nM<IC50<=10 μM) | – |
| O=C(Nc1cc(-c2c(C(F)(F)F)n[nH]c2C2CC2)c2c3c1C(c1cc(F)ccc1Cl)NC(=O)N3CC2)c1cc(F)cc(C(F)(F)F)c1 (stereo not shown) [YL048] | ++ (++ represents 250 nM<IC50<=10 μM) | – |
| O=C(Nc1cc(-c2ccc3ncnn3c2F)c2c3c1C(c1cc(F)ccc1Cl)NC(=O)N3CC2)c1cc(F)cc(C(F)(F)F)c1 (stereo not shown) [YL129] | +++ (+++ represents IC50>10 μM) | – |
| O=C1NC(c2cc(F)ccc2Cl)c2c(Nc3ncnc4c(Cl)cc(F)cc34)ccc3c2N1CC3 (stereo not shown) [YL052] | +++ (+++ represents IC50>10 μM) | – |
| C[C@@H](O)C(=O)Nc1cc(NC(=O)c2cc(F)cc(C(F)(F)F)c2)c2c3c1CCN3C(=O)NC2c1cc(F)ccc1Cl (stereo partly shown) [YL031] | +++ (+++ represents IC50>10 μM) | – |
| Nc1n[nH]c2ccc(-c3cc(NC(=O)c4cc(F)cc(C(F)(F)F)c4)c4c5c3CCN5C(=O)NC4c3cc(F)ccc3Cl)cc12 (stereo not shown) [YL013] | ++ (++ represents 250 nM<IC50<=10 μM) | – |
| Cn1nc2c(C#N)cc(NC(=O)c3cc(F)cc(C(F)(F)F)c3)c3c2c1C(=O)NC3c1cc(F)ccc1Cl (single isomer, unassigned) [YL102-P2] | – | IC50 [2]: > 10 µM |
| O=C(Nc1cc(-c2cn[nH]c2C(F)(F)F)c2c3c1C(c1cc(F)ccc1Cl)NC(=O)N3CC2)c1cc(F)cc(C(F)(F)F)c1 (stereo not shown) [YL071] | ++ (++ represents 250 nM<IC50<=10 μM) | – |
| N#Cc1c(-c2cc(NC(=O)c3cc(F)cc(C(F)(F)F)c3)c3c4c2CCN4C(=O)NC3c2cc(F)ccc2Cl)ccc2ncnn12 (single isomer, unassigned) [YL108-P2] | – | IC50 [2]: > 10 µM |
| N#Cc1nc(F)ncc1-c1cc(NC(=O)c2cc(F)cc(C(F)(F)F)c2)c2c3c1CCN3C(=O)NC2c1cc(F)ccc1Cl (stereo not shown) [YL143] | +++ (+++ represents IC50>10 μM) | – |
| Nc1cc(NC(=O)c2cc(F)cc(C(F)(F)F)c2)c2c3c1CCN3C(=O)NC2c1cc(F)ccc1C(F)(F)F (stereo not shown) [YL096] | – | IC50 (PI3Kaα IC50): 0.25 to 10 µM |
| O=C1NC(c2cc(F)ccc2Cl)c2c(-c3nc4c(F)cc(C(F)(F)F)cc4[nH]3)ccc3c2N1CC3 (stereo not shown) [YL032] | ++ (++ represents 250 nM<IC50<=10 μM) | – |
| CC(C)n1nc2ccc(NC(=O)c3cc(F)cc(C(F)(F)F)c3)c3c2c1C(=O)NC3c1cc(F)ccc1Cl (stereo not shown) [YL118] | – | PI3Kaα IC50: ++ (key: +represents IC50<=250 nM; ++ represents 250 nM<IC50<=10 μM; +++ represents IC50>10 μM) |
| N#Cc1ncncc1-c1cc(NC(=O)c2cc(F)cc(C(F)(F)F)c2)c2c3c1CCN3C(=O)NC2c1cc(F)ccc1Cl (stereo not shown) [YL141] | +++ (+++ represents IC50>10 μM) | – |
| Cc1cc(NC(=O)c2cc(F)cc(C(F)(F)F)c2)c2c3c1CCN3C(=O)NC2c1cc(F)ccc1Cl (stereo not shown) [YL020] | +++ (+++ represents IC50>10 μM) | – |
